Source: US20160263258A1, “Radiotracer introduced [18F]fluoromethyl group targeting neuroinflammation for PET imaging and Synthesis of Radiotracer and its biological evaluation Method for Radiotracer” (Bio Imaging Korea Co., Ltd., priority 2013, published 2016)

Tests used:
[1] = biological target: T1, TSPO (Rattus norvegicus, UniProt P16257); test: Selective/specific PET imaging: inhibition image by co-injection with the radiotracer; assay type: in vivo
T1 construct: from tissue; host or cells: brain of living LPS-injected Sprague-Dawley rats (PET imaging)
Procedure: (§1) To construct a neuroinflammation rat model, male Sprague-Dawley rats with a weight of 200-250 g were used. Each of the rats was anesthetized, and the cranium was exposed and then drilled with a bone drill to form a small hole. Thereafter, 50 μg of LPS (lipopolysaccharide) was injected into the rat body by a Hamilton syringe at a flow rate of […] (AP, 0.8 mm; L, −2.7 mm; and P, −5.0 mm from the bregma). LPS was maintained for 10 minutes to prevent LPS from flowing backward in the Hamilton syringe, and then the small hole of the cranium was filled with wax and the incised scalp was closed.

[2] = tested on: LPS-induced brain neuroinflammation rat model; test: PET imaging in LPS-induced brain neuroinflammation rat model; assay type: in vivo; conditions: for time of uptake (faster uptake): PET time-activity, after injection; for accumulation in LPS-injected inflammatory region versus contralateral region: PET, tail vein injection, 4 days after LPS
Procedure: as §1
At 4 days after LPS injection into five rats (227.98±3.8 g), positron emission tomography (PET) images were acquired. The rats were subjected to PET imaging for 120 minutes after injection of [^11C]PBR28 or the [^18F]fluoromethyl group-introduced radiotracer into the tail vein of the neuroinflammation model. First, a [^11C]PBR28 image was acquired from the neuroinflammation model, and after six-half lives ([…]) when the remaining radioactivity disappeared, an image of the [^18F]fluoromethyl group-introduced radiotracer was acquired.

[3] = pH 7.4
Procedure: For the measurement of lipophilicity, each of the [^18F]fluoromethyl group-introduced radiotracer and [^11C]PBR28 (about 0.74 MBq) in 5% ethanol/saline was added to and mixed with n-octanol (5 mL) and sodium phosphate buffer (5.0 mL, 0.15 M, pH 7.4), and then lipophilicity was measured four times. The radioactivity of the sample (100 μL) in each sample was measured, and the lipophilicity was calculated as the ratio of counts per minute to sodium phosphate buffer and n-octanol.

[4] = according to previous studies; cited from earlier work
[5] = Metabolism of radiotracer in brain of neuroinflammation model rats (HPLC); assay type: in vivo, rat
Procedure: The [^18F]fluoromethyl group-introduced radiotracer (about 37 MBq, 5% ethanol/saline) was injected into the vein of the neuroinflammation model rats through the tail vein. After 30 and 60 minutes, the rats were sacrificed, and brain samples were collected therefrom, after which the metabolism of the fluorine-18-labeled radiotracer was measured by HPLC. As a result, the amount of the [^18F]fluoromethyl group-introduced radiotracer in the rat brain was 97.3% 30 minutes after injection and 96.8% 60 minutes after injection. Other radioactive metabolites, excluding 2-3% fluorine-18, were not observed in HPLC up to 60 minutes after injection. In contrast, according to previous studies, it is known that, in the case of [^11C]PBR28, radioactive metabolites exist in an amount of about 10-15%, thereby giving false images.

[6] = background art; cited from earlier work

SMILES: CCOC(=O)c1ncn2c1CN(C)C(=O)c1cc(F)ccc1-2 [Flumazenil]
- influence on uptake of the fluorine-18-labeled radiotracer in the inflammatory region ([1]; 5 mg/kg injected simultaneously with the [18F] radiotracer, CBR ligand): did not influence the uptake

SMILES: CC(=O)N(Cc1ccccc1O[11CH3])c1ccc(Oc2ccccc2)nc1 [[^11C]PBR28, N-acetyl-N-(2-[^11C]methoxybenzyl)-2-phenoxy-5-pyridinamine]
- time of uptake (faster uptake) [2]: 20 min
- accumulation in LPS-injected inflammatory region versus contralateral region [2]: more selectively accumulated in the LPS-injected inflammatory region than the contralateral region
- inflammatory region/contralateral region ratio ([2]; at 90 min): 3.4 times
- lipophilicity [3]: 3.01±0.01
- radioactive metabolites, amount [4]: 10-15%

SMILES: CCC(C)N(C)C(=O)c1cc2ccccc2c(-c2ccccc2Cl)n1 (stereo not drawn) [PK11195]
- inhibition of radiotracer uptake in the inflammatory region ([1]; 10 mg/kg injected simultaneously with the [18F] radiotracer): about 66%

SMILES: CC(=O)N(Cc1ccccc1OC[18F])c1cnccc1Oc1ccccc1 [N-(2-[^18F]fluoromethoxybenzyl)-N-(4-phenoxypyridin-3-yl)acetamide]
- time of uptake (faster uptake) [2]: 4.5 min
- accumulation in LPS-injected inflammatory region versus contralateral region [2]: more selectively accumulated in the LPS-injected inflammatory region than the contralateral region
- uptake, times higher ([2]; for about 2 hours, p=0.009): at least 3.0 times
- amount of radiotracer in the rat brain ([5]; 30 minutes after injection): 97.3%
- amount of radiotracer in the rat brain ([5]; 60 minutes after injection): 96.8%
- fluorine-18 (radioactive metabolite) in brain ([5]; up to 60 minutes after injection): 2-3%
- lipophilicity [3]: 2.85±0.02

SMILES: COc1ccc(OC)c(CN(C(C)=O)c2cc(F)ccc2Oc2ccccc2)c1 [[^11C]DAA1106]
- uptake relative to [11C]-(R)-PK11195 [6]: at least 4 times
